The record followed here is patent publication US9845322B2 (Hoffmann-La Roche Inc., priority 2016, dated 2017).

The test system of one test is HBsAg secretion in HepG2.2.15 cells. Nature of the test: HBsAg assay (chemiluminescence immunoassay of secreted HBsAg in culture supernatant). It counts as cell-based, HBV. To be noted: HepG2.2.15 cells; concentration at which HBsAg secretion was reduced by 50% compared to the no drug control; read-out: IC50 (HBsAg assay). As for the experimental part:
HepG2.2.15 cells (Acs et al. Proc Natl Acad Sci USA, 84, (1987), 4641-4), a constitutively HBV-expressing cell line were cultured in DMEM+Glutamax-I medium (Invitrogen, Carlsbad, Calif., USA), supplemented with 10% fetal bovine serum (Invitrogen) and G418 (Invitrogen) at a final concentration of 200 mg/L and maintained in 5% CO2 at 37° C.
HepG2.2.15 cells were seeded in duplicate into white, 96-well plates at 1.5×10^4 cells/well. The cells were treated with a three-fold serial dilution series of the compounds in DMSO. The final DMSO concentration in all wells was 1% and DMSO was used as no drug control.
The HBsAg chemiluminescence immunoassay (CLIA) kit (Autobio Diagnostics Co., Zhengzhou, China, Catalog number: CL0310-2) was used to measure the levels of secreted HBV antigens semi-quantitatively. For the detection 50 μL/well culture supernatant was used and HBsAg was quantified using HBsAg chemiluminescence immunoassay (CLIA) kit (Autobio Diagnostics Co., Zhengzhou, China, Catalog number: CL0310-2), 50 μL of the supernatant was transferred to the CLIA assay plate and 50 μL of enzyme conjugate reagent was added into each well. The plates were sealed and gently agitated for 1 hour at room temperature. The supernatant-enzyme-mixture was discarded and wells were washed 6 times with 300 μL of PBS. The residual liquid was removed by plating the CLIA plate […] on absorbent tissue paper. 25 μL of substrates A and B were added to each well. Luminance was measured using a luminometer (Mithras LB 940 Multimode Microplate Reader) after 10 minutes incubation. Dose-response curves were generated and the IC50 value was extrapolated by using the E-WorkBook Suite (ID Business Solutions Ltd., Guildford, UK). The IC50 was defined as the compound concentration (or conditioned media log dilution) at which HBsAg secretion was reduced by 50% compared to the no drug control.
The compounds according to formula I were tested for their capacity to inhibit HBsAg as described herein.
`CC1c2cnc(-c3ncccn3)nc2CCN1c1cc(F)c(F)c(OCCCS(C)(=O)=O)c1` (single isomer, unassigned; (+)) [Example 48, (+)-6-[3,4-difluoro-5-(3-methylsulfonylpropoxy)phenyl]-5-methyl-2-pyrimidin-2-yl-7,8-dihydro-5H-pyrido[4,3-d]pyrimidine]: the IC50 (commonly the concentration needed to halve the response being measured) turned out to be 184 nM. The same measure, in the same setting: the same measure for `CC1c2cnc(-c3ncccn3)nc2CCN1c1cc(F)c(F)c(OCC(N)=O)c1` (stereo not drawn) [Example 66, 2-[2,3-difluoro-5-(5-methyl-2-pyrimidin-2-yl-7,8-dihydro-5H-pyrido[4,3-d]pyrimidin-6-yl)phenoxy]acetamide]: 168 nM. Consider `COc1cc(N2CCc3nc(-c4ccccn4)ncc3C2C)cc(F)c1F` (single isomer, unassigned; (+)) [Example 6, (+)-6-(3,4-difluoro-5-methoxy-phenyl)-5-methyl-2-(2-pyridyl)-7,8-dihydro-5H-pyrido[4,3-d]pyrimidine], for which the half-maximal inhibitory concentration (IC50) is 8070 nM. For `CC1c2cnc(-c3ccccn3)nc2CCN1c1ccc([N+](=O)[O-])cc1` (stereo not drawn) [Example 1, 5-methyl-6-(4-nitrophenyl)-2-(2-pyridyl)-7,8-dihydro-5H-pyrido[4,3-d]pyrimidine], the 50% inhibitory concentration (IC50) came out at 186 nM.

For `CC1c2cnc(-c3ncccn3)nc2CCN1c1cc(F)cc(N(C)C)n1` (stereo not drawn) [Example 197, 4-fluoro-N,N-dimethyl-6-(5-methyl-2-pyrimidin-2-yl-7,8-dihydro-5H-pyrido[4,3-d]pyrimidin-6-yl)pyridin-2-amine], the IC50 came to 6 nM.

Staying with this test, now noted: Hepatitis B virus, HepG2.2.15, HepG2.2.15 cells; concentration at which HBsAg secretion was reduced by 50% compared to the no drug control; read-out: IC50 (HBsAg assay).
Regarding `COc1cc(Cl)cc(N2CCc3nc(-c4ncccn4)ncc3C2C)n1` (stereo not drawn) [Example 140, 6-(4-chloro-6-methoxy-2-pyridyl)-5-methyl-2-pyrimidin-2-yl-7,8-dihydro-5H-pyrido[4,3-d]pyrimidine], the half-inhibitory concentration (IC50) was 24 nM. Consider `CC1c2cnc(-c3ncccn3)nc2CCN1c1cc(OCCCN2CCOCC2=O)cc(F)n1` (single isomer, unassigned; (-)) [Example 181, (−)-4-[3-[[2-fluoro-6-[5-methyl-2-pyrimidin-2-yl-7,8-dihydro-5H-pyrido[4,3-d]pyrimidin-6-yl]-4-pyridyl]oxy]propyl]morpholin-3-one], for which the IC50 turned out to be 12 nM. Still for that read-out and setting: the same measure for `CC1c2cnc(-c3ncccn3)nc2CCN1c1cc(OC2CCOCC2)cc(F)n1` (stereo not drawn) [Example 172, 6-(6-fluoro-4-tetrahydropyran-4-yloxy-2-pyridyl)-5-methyl-2-pyrimidin-2-yl-7,8-dihydro-5H-pyrido[4,3-d]pyrimidine]: 56 nM. Still for that read-out and setting: as for `COc1cc(F)c(Cl)c(N2CCc3nc(-c4ncccn4)ncc3C2C)c1Cl` (single isomer, unassigned; (+)) [Example 123, (+)-6-(2,6-dichloro-3-fluoro-5-methoxy-phenyl)-5-methyl-2-pyrimidin-2-yl-7,8-dihydro-5H-pyrido[4,3-d]pyrimidine], the figure is 1140 nM.

For the compound `CC1c2cnc(-c3ncccn3)nc2CCN1c1cc(F)cc(C(F)(F)F)c1` (stereo not drawn) [Example 81, 6-[3-fluoro-5-(trifluoromethyl)phenyl]-5-methyl-2-pyrimidin-2-yl-7,8-dihydro-5H-pyrido[4,3-d]pyrimidine], the IC50 was 131 nM. Still for that read-out and setting: as for `COc1cc(F)cc(N2CCc3nc(-c4ncccn4)ncc3C2C)n1` (stereo not drawn) [Example 142, 6-(4-fluoro-6-methoxy-2-pyridyl)-5-methyl-2-pyrimidin-2-yl-7,8-dihydro-5H-pyrido[4,3-d]pyrimidine], the figure is 40 nM; as for `CC1c2cnc(-c3ccccn3)nc2CCN1c1cc(N(C)C)cc(F)n1` (stereo not drawn) [Example 216, 2-fluoro-N,N-dimethyl-6-[5-methyl-2-(2-pyridyl)-7,8-dihydro-5H-pyrido[4,3-d]pyrimidin-6-yl]pyridin-4-amine], 13 nM.

Regarding `COCCCS(=O)(=O)c1cc(F)cc(N2CCc3nc(-c4ncccn4)ncc3C2C)c1` (stereo not drawn) [Example 187, 6-[3-fluoro-5-(3-methoxypropylsulfonyl)phenyl]-5-methyl-2-pyrimidin-2-yl-7,8-dihydro-5H-pyrido[4,3-d]pyrimidine], the IC50 turned out to be 613 nM.

As for `CC(=O)N1CC(CCOc2cc(N3CCc4nc(-c5ncccn5)ncc4C3C)cc(F)c2F)C1` (stereo not drawn) [Example 117, 1-[3-[2-[2,3-difluoro-5-(5-methyl-2-pyrimidin-2-yl-7,8-dihydro-5H-pyrido[4,3-d]pyrimidin-6-yl)phenoxy]ethyl]azetidin-1-yl]ethanone], the IC50 turned out to be 72 nM. Consider `COc1cc(N2CCc3nc(-c4ncccn4)ncc3C2C)cc(F)c1Cl` (stereo not drawn) [Example 40, 6-(4-chloro-3-fluoro-5-methoxy-phenyl)-5-methyl-2-pyrimidin-2-yl-7,8-dihydro-5H-pyrido[4,3-d]pyrimidine], for which the concentration for half-maximal inhibition (IC50) was determined as 4860 nM. On the same count and under the same terms, the same measure for `CC1c2cnc(-c3ncccn3)nc2CCN1c1cc(F)cc(OCC2CC2)c1` (stereo not drawn) [Example 145, 6-[3-(cyclopropylmethoxy)-5-fluoro-phenyl]-5-methyl-2-pyrimidin-2-yl-7,8-dihydro-5H-pyrido[4,3-d]pyrimidine]: 14 nM; for `CC1c2cnc(-c3ncccn3)nc2CCN1c1cc(F)c(F)c(OCCC2CN(C(=O)OC(C)(C)C)C2)c1` (stereo not drawn) [Example 115, tert-butyl 3-[2-[2,3-difluoro-5-(5-methyl-2-pyrimidin-2-yl-7,8-dihydro-5H-pyrido[4,3-d]pyrimidin-6-yl)phenoxy]ethyl]azetidine-1-carboxylate]: 12 nM. Still for that read-out and setting: as for `CC1c2cnc(-c3ncccn3)nc2CCN1c1cc(F)c(F)c(OCCCNC(=O)CCCCl)c1` (stereo not drawn) [Example 95, 4-chloro-N-[3-[2,3-difluoro-5-(5-methyl-2-pyrimidin-2-yl-7,8-dihydro-5H-pyrido[4,3-d]pyrimidin-6-yl)phenoxy]propyl]butanamide], the figure is 724 nM; as for `CC1c2cnc(-c3ccccn3)nc2CCN1c1cc(F)c(F)c(OCCCN2CCOCC2)c1` (stereo not drawn) [Example 32, 4-[3-[2,3-difluoro-5-[5-methyl-2-(2-pyridyl)-7,8-dihydro-5H-pyrido[4,3-d]pyrimidin-6-yl]phenoxy]propyl]morpholine], 74 nM. On the same count and under the same terms, the same measure for `CC1c2cnc(-c3ccccn3)nc2CCN1c1cc(F)c(F)c(OCCCCO)c1` (stereo not drawn) [Example 24, 4-[2,3-difluoro-5-[5-methyl-2-(2-pyridyl)-7,8-dihydro-5H-pyrido[4,3-d]pyrimidin-6-yl]phenoxy]butan-1-ol]: 29 nM. Consider `COc1cc(F)cc(N2CCc3nc(-c4ncccn4)ncc3C2C)c1Cl` (single isomer, unassigned; (-)) [Example 131, (−)-6-(2-chloro-5-fluoro-3-methoxy-phenyl)-5-methyl-2-pyrimidin-2-yl-7,8-dihydro-5H-pyrido[4,3-d]pyrimidine], for which the IC50 is 2 nM. Regarding `CC1c2cnc(-c3ncccn3)nc2CCN1c1cc(F)c(F)c(OCC(F)F)c1` (stereo not drawn) [Example 70, 6-[3-(2,2-difluoroethoxy)-4,5-difluoro-phenyl]-5-methyl-2-pyrimidin-2-yl-7,8-dihydro-5H-pyrido[4,3-d]pyrimidine], the concentration for half-maximal inhibition (IC50) is 26 nM. The same measure, in the same setting: the same measure for `COc1cc(N2CCc3nc(-c4ncccn4)ncc3C2C)cc(Cl)n1` (stereo not drawn) [Example 141, 6-(2-chloro-6-methoxy-4-pyridyl)-5-methyl-2-pyrimidin-2-yl-7,8-dihydro-5H-pyrido[4,3-d]pyrimidine]: 113 nM; for `COCCCN(C)C(=O)c1cc(F)cc(N2CCc3nc(-c4ncccn4)ncc3C2C)c1` (stereo not drawn) [Example 178, 3-fluoro-N-(3-methoxypropyl)-N-methyl-5-(5-methyl-2-pyrimidin-2-yl-7,8-dihydro-5H-pyrido[4,3-d]pyrimidin-6-yl)benzamide]: 123 nM; for `CC1c2cnc(-c3ncccn3)nc2CCN1c1cc(F)c(F)c(OCCCCCNC(=O)OC(C)(C)C)c1` (stereo not drawn) [Example 56, tert-butyl N-[5-[2,3-difluoro-5-(5-methyl-2-pyrimidin-2-yl-7,8-dihydro-5H-pyrido[4,3-d]pyrimidin-6-yl)phenoxy]pentyl]carbamate]: 55 nM.

In the case of `COCCCNC(=O)c1cc(F)cc(N2CCc3nc(-c4ncccn4)ncc3C2C)c1` (stereo not drawn) [Example 177, 3-fluoro-N-(3-methoxypropyl)-5-(5-methyl-2-pyrimidin-2-yl-7,8-dihydro-5H-pyrido[4,3-d]pyrimidin-6-yl)benzamide], the half-inhibitory concentration (IC50) is 290 nM. On the same count and under the same terms, as for `CC1c2cnc(-c3ccccn3)nc2CCN1c1cc(OCC2CC2)cc(F)n1` (stereo not drawn) [Example 191, 6-[4-(cyclopropylmethoxy)-6-fluoro-2-pyridyl]-5-methyl-2-(2-pyridyl)-7,8-dihydro-5H-pyrido[4,3-d]pyrimidine], the figure is 35 nM.
